Laboratory results as given in ChEMBL document CHEMBL1201862, “PubChem BioAssay data set” (2004).
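Dose response: 5 concentrations. Exposure: 48 h. Format: 96-well plates. Endpoint: linear interpolation; highest concentration if not reached. GI50 = concentration required for 50% inhibition of growth.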 Active and inactive are the calls of the source. Cut-off read from the data, not from the text of the source: active = GI50 up to about 1.1 µM and inactive = higher.

What was measured:
Test in all cases: growth of human tumour cells (NCI), 48 h
[1] = tested on: 786-0
[2] = tested on: A498
[3] = tested on: A549
[4] = tested on: BT-549
[5] = tested on: CAKI-1
[6] = tested on: CCRF-CEM
[7] = tested on: COLO 205
[8] = tested on: DU-145
[9] = tested on: HCT-116
[10] = tested on: HCT-15
[11] = tested on: HL-60
[12] = tested on: HOP-62
[13] = tested on: HOP-92
[14] = tested on: HT-29
[15] = tested on: Hs-578T
[16] = tested on: IGROV-1
[17] = tested on: K562
[18] = tested on: KM12
[19] = tested on: LOX IMVI
[20] = tested on: M14
[21] = tested on: MCF7
[22] = tested on: MDA-MB-231
[23] = tested on: MDA-MB-435
[24] = tested on: MDA-N
[25] = tested on: MOLT-4
[26] = tested on: Malme-3M
[27] = tested on: NCI-H226
[28] = tested on: NCI-H23
[29] = tested on: NCI-H460
[30] = tested on: NCI/ADR-RES
[31] = tested on: OVCAR-3
[32] = tested on: OVCAR-4
[33] = tested on: OVCAR-8
[34] = tested on: PC-3
[35] = tested on: RPMI-8226
[36] = tested on: RXF 393
[37] = tested on: SF-268
[38] = tested on: SF-539
[39] = tested on: SK-MEL-28
[40] = tested on: SK-MEL-2
[41] = tested on: SK-MEL-5
[42] = tested on: SK-OV-3
[43] = tested on: SN12C
[44] = tested on: SNB-19
[45] = tested on: SNB-75
[46] = tested on: SR
[47] = tested on: SW-620
[48] = tested on: T47D
[49] = tested on: TK-10
[50] = tested on: U-251
[51] = tested on: UACC-257
[52] = tested on: UACC-62
[53] = tested on: UO-31
[54] = tested on: ACHN
[55] = tested on: EKVX
[56] = tested on: HCC 2998
[57] = tested on: NCI-H522
[58] = tested on: OVCAR-5
[59] = tested on: SF-295

N#Cc1c(N)nc2c(c1-c1ccc(Br)cc1)CSc1ccccc1-2
GI50 [1]: 27.1 µM (inactive) | GI50 [2]: > 100 µM (inactive) | GI50 [3]: 37.2 µM (inactive) | GI50 [4]: > 100 µM (inactive) | GI50 [5]: 14.9 µM (inactive) | GI50 [6]: 22.4 µM (inactive) | GI50 [7]: 13.3 µM (inactive) | GI50 [8]: 96.6 µM (inactive) | GI50 [9]: 18.5 µM (inactive) | GI50 [10]: 25.6 µM | GI50 [11]: 33.7 µM (inactive) | GI50 [12]: 50.1 µM (inactive) | GI50 [13]: 9.02 µM (inactive) | GI50 [14]: 34.6 µM (inactive) | GI50 [15]: 22.8 µM (inactive) | GI50 [16]: 21.9 µM (inactive) | GI50 [17]: 32.1 µM (inactive) | GI50 [18]: 56 µM (inactive) | GI50 [19]: 28.6 µM (inactive) | GI50 [20]: 41.7 µM (inactive) | GI50 [21]: 19.1 µM (inactive) | GI50 [22]: 13.3 µM (inactive) | GI50 [23]: 19.5 µM (inactive) | GI50 [24]: 49.4 µM (inactive) | GI50 [25]: 38.7 µM (inactive) | GI50 [26]: > 100 µM (inactive) | GI50 [27]: 16.1 µM (inactive) | GI50 [28]: 29.6 µM (inactive) | GI50 [29]: 25.8 µM (inactive) | GI50 [30]: 22 µM (inactive) | GI50 [31]: 30.4 µM (inactive) | GI50 [32]: 24.6 µM (inactive) | GI50 [33]: 55 µM (inactive) | GI50 [34]: 16.7 µM (inactive) | GI50 [35]: 18.2 µM (inactive) | GI50 [36]: 20.1 µM (inactive) | GI50 [37]: 33.1 µM (inactive) | GI50 [38]: 35 µM (inactive) | GI50 [39]: 68.7 µM (inactive) | GI50 [40]: 27.2 µM (inactive) | GI50 [41]: 58.7 µM (inactive) | GI50 [42]: 29.6 µM (inactive) | GI50 [43]: 30 µM (inactive) | GI50 [44]: 39.7 µM (inactive) | GI50 [45]: 31.4 µM (inactive) | GI50 [46]: 68.4 µM (inactive) | GI50 [47]: 83.4 µM (inactive) | GI50 [48]: 17.4 µM (inactive) | GI50 [49]: 73.1 µM (inactive) | GI50 [50]: 34.4 µM (inactive) | GI50 [51]: 13.9 µM (inactive) | GI50 [52]: 21.4 µM (inactive) | GI50 [53]: 33.8 µM (inactive)

Cc1ccc2c(c1)C(=O)c1nc(C)ccc1C2=O
GI50 [1]: 43.8 µM (inactive) | GI50 [2]: 59.3 µM (inactive) | GI50 [3]: 31 µM (inactive) | GI50 [54]: 33.3 µM (inactive) | GI50 [4]: 53.7 µM (inactive) | GI50 [5]: 24.8 µM (inactive) | GI50 [6]: 27.9 µM (inactive) | GI50 [7]: 17.3 µM (inactive) | GI50 [8]: 32.3 µM (inactive) | GI50 [55]: 29.4 µM (inactive) | GI50 [56]: 34.9 µM (inactive) | GI50 [9]: 23.9 µM (inactive) | GI50 [10]: 22.6 µM | GI50 [11]: 21.3 µM (inactive) | GI50 [12]: 69 µM (inactive) | GI50 [14]: 17 µM (inactive) | GI50 [15]: > 100 µM (inactive) | GI50 [16]: 22.1 µM (inactive) | GI50 [17]: 37.1 µM (inactive) | GI50 [18]: 23.3 µM (inactive) | GI50 [19]: 19.8 µM (inactive) | GI50 [20]: 32.7 µM (inactive) | GI50 [21]: 25.6 µM (inactive) | GI50 [22]: 13.9 µM (inactive) | GI50 [23]: 21.6 µM (inactive) | GI50 [24]: 20.2 µM (inactive) | GI50 [25]: 69.3 µM (inactive) | GI50 [26]: 4.95 µM (inactive) | GI50 [27]: 43.5 µM (inactive) | GI50 [28]: 19.5 µM (inactive) | GI50 [57]: 28.7 µM (inactive) | GI50 [30]: 21.4 µM (inactive) | GI50 [31]: 57.1 µM (inactive) | GI50 [32]: 28.2 µM (inactive) | GI50 [58]: 86.1 µM (inactive) | GI50 [33]: 27 µM (inactive) | GI50 [34]: 35.2 µM (inactive) | GI50 [35]: 21.3 µM (inactive) | GI50 [36]: 66.7 µM (inactive) | GI50 [37]: 32 µM (inactive) | GI50 [59]: 38.1 µM (inactive) | GI50 [38]: 21.7 µM (inactive) | GI50 [39]: 50.7 µM (inactive) | GI50 [40]: > 100 µM (inactive) | GI50 [41]: 6.9 µM (inactive) | GI50 [42]: > 100 µM (inactive) | GI50 [43]: 26.5 µM (inactive) | GI50 [44]: 22.4 µM (inactive) | GI50 [45]: 29.8 µM (inactive) | GI50 [46]: 47.1 µM (inactive) | GI50 [47]: 33.5 µM (inactive) | GI50 [48]: 38.3 µM (inactive) | GI50 [49]: 38.3 µM (inactive) | GI50 [50]: 35.5 µM (inactive) | GI50 [51]: 23.6 µM (inactive) | GI50 [52]: 24.3 µM (inactive) | GI50 [53]: 26.4 µM (inactive)
